According to article PMC12071365, “Discovery of Boronic Acids-Based β-Lactamase Inhibitors Through In Situ Click Chemistry” (International Journal of Molecular Sciences, 2025):
Like-named read-outs stand apart in the source and are kept apart here.

Key:
KPC-2 [1] = target: T1, KPC-2 (Klebsiella pneumoniae, UniProt Q9F663); experiment: Competitive inhibition assay with nitrocefin, Ki; assay type: biochemical; conditions: for improvement compared with the warhead activity: Ki vs KPC-2 relative to warhead 3 (Ki = 2.3 µM)
T1 construct: made in house
Experimental: (§1) The β-lactamases used in the present study were from a Clinical Biochemistry Laboratory collection (Department of Biotechnological and Applied Clinical Sciences, University of L’Aquila, L’Aquila, Italy). […] The concentration of each enzyme was determined by a Bradford assay.
(§2) The plot v0/vi versus [I] yielded a straight line of slope KM/(KM + S) × Ki.
AC = Amplification coefficient. In the AC column, between brackets reports the regioisomeric ratio observed (1,4- vs. 1,5-) and bold reports the synthesised regioisomer. Light blue indicates the compounds obtained from the KPC-2 screening.

KPC-2 [2] = target: T1, KPC-2; conditions: KPC-2 20 mol%; warhead 3 + alkyne cluster; 37 °C, 24 h
Experimental: Starting from the azido-functionalised boronic acid 3, optimised conditions (see SI Table S2) were applied in combination with the 90-component alkyne library. The reactions were conducted in 0.2 mL microtubes in a 95:5 sodium phosphate 50 mM pH 7.0:DMSO mixture (final volume 100 µL), stirring at 300 rpm at 37 °C for 24 h (Scheme 1).
The experiments were conducted in triplicate, using a reaction mixture containing one equivalent of warhead 3, five equivalents of each alkyne cluster (9 alkynes), and 20 mol% KPC-2 as the catalyst. Product formation was monitored directly from the crude mixture using a hybrid quadrupole orbitrap LC–MS system in the ESI+ or ESI- mode after 24 h. Peak areas of the desired products were compared across three conditions: with KPC-2, without any enzyme, and with bovine serum albumin (BSA). […] The resulting ratio, named as the amplification coefficient (AC), was calculated from the peak area of the product obtained in the presence of KPC-2 vs. the one acquired with the controls.
(§3) Binary and multicomponent KTGS. […] The microtube was shaken at 300 rpm at 37 °C for 24 h. Reactions were transferred into a LC–MS vial and directly injected (10 µL) for liquid chromatography–mass spectrometry (LC–MS). Reactions were analysed with an Ultimate 3000 UHPLC coupled to a Q-exactive hybrid quadrupole-orbitrap mass spectrometer via an HESI-II heated electrospray ionisation source. The chromatographic separation was performed injecting a 10 µL sample volume on a Hypersil Gold C18 100 × 2.1 mm, 1.9 µm column (Thermo Fisher Scientific), kept at 30 °C eluting with 0.3 mL/min flow of ultrapure water (A) and methanol (B), both with 0.1% formic acid as mobile phase. […] A data-dependent mass spectrometric data acquisition strategy was used for full MS/DD-MS2. […] An inclusion list was eventually used to target the MS2 spectra acquisition of preferred ion species. Detection was based on calculated [M+H]^+ and [M−H]^− molecular ions with a 5 ppm accuracy tolerance for their respective ion chromatogram extraction. Peak retention time and area of detected target compounds was used for their detection and semi-quantitative evaluation in between reaction batches.
(§4) For controls (buffer and BSA), AmpC/KPC-2 is replaced with no enzyme (buffer volume 95 µL) and BSA (stock 100 µM, final concentration 5 µM, buffer volume 90 µL). Hits were identified in each cluster by mass and retention time and compared with both controls (buffer and BSA) and synthetically prepared triazoles obtained in mixtures.

AmpC [3] = target: T2, AmpC (Escherichia coli, UniProt P00811); experiment: Competitive inhibition assay with nitrocefin, Ki; assay type: biochemical; design: made in house
Experimental: as §1, §2
Figure 9 Compounds synthesised and their biological evaluation. AC = Amplification coefficient. […] Light blue indicates the compounds from the AmpC screening.

[4] = test system: O=C(Cc1cccs1)N[C@@H]1C(=O)N2C(C(=O)O)=C(/C=C/c3ccc([N+](=O)[O-])cc3[N+](=O)[O-])CS[C@H]12; experiment: purified protein, by the assay type
AmpC [5] = target: T2, AmpC; design: made in house; conditions: AmpC 20 mol%; warhead 3 + alkyne cluster; 37 °C, 24 h
Experimental: Following the same conditions used for the multicomponent screening with KPC-2, the in situ click chemistry experiment was performed using AmpC as template.
as §3, §4

T1 sequence (Q9F663 25-293, looked up, species assumed): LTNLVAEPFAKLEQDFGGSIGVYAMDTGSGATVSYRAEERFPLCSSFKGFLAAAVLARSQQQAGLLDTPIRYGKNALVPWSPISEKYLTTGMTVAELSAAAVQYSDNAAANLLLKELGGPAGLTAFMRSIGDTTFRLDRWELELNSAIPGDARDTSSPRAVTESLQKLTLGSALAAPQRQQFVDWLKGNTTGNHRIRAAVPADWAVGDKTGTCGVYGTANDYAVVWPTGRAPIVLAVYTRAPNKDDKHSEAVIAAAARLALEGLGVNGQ
T2 sequence (P00811 20-377): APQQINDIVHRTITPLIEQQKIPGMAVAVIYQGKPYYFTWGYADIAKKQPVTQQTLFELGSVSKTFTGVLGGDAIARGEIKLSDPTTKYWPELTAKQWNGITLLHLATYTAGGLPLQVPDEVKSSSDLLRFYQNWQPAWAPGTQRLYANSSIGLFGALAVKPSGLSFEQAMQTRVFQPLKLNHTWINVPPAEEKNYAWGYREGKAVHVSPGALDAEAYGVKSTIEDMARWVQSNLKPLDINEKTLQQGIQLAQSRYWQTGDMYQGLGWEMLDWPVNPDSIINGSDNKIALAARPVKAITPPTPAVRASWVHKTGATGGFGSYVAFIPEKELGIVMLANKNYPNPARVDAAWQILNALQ

| Compound | Ki (KPC-2 [1]) [nM] | AC (amplification coefficient) (KPC-2 [2]) | Ki (AmpC [3]; AmpC, values in nM) [nM] | further results |
| --- | --- | --- | --- | --- |
| O=S(=O)(Cc1cn(Cc2cccc(B(O)O)c2)nn1)c1ccccc1 [compound 6] | 800 | 3-4 |  | improvement compared with the warhead activity (KPC-2 [1]): 3 fold |
| CCCCC(=O)NCc1cn(Cc2cccc(B(O)O)c2)nn1 [compound 8] | 7600 ± 400 |  |  | Ki (AmpC [3]): 1500 nM |
| O=S(=O)(NCc1cn(Cc2cccc(B(O)O)c2)nn1)C1CCCCC1 [compound 10] | 670 ± 100 |  | 600 |  |
| CTX-M-15 (Escherichia coli) |  |  |  | Km ([4]; other: CTX-M-15, NaPi 50 mM pH 7.0): 35 ± 1 µM µM |
| C#CCS(=O)(=O)c1ccccc1 [Al-39] |  | exceeding three |  |  |
| COC(=O)c1cccc(CS(=O)(=O)NCc2cnnn2Cc2cccc(B(O)O)c2)c1 [7a] | 4600 |  | 170 |  |
| CMY-2 (Klebsiella pneumoniae) |  |  |  | Km ([4]; other: CMY-2, NaPi 50 mM pH 7.0): 8 ± 1 µM µM |
| NC(=O)c1cccc(OCc2cn(Cc3cccc(B(O)O)c3)nn2)c1 [compound 5] |  | 3-4 |  | Ki (KPC-2 [1]; KPC-2, values in nM): 730 nM; improvement compared with the warhead activity (KPC-2 [1]): 3 fold |
| COC(=O)c1ccc(C(=O)NCc2cn(Cc3cccc(B(O)O)c3)nn2)cc1 [compound 12] |  |  | 400 | AC (amplification coefficient) (AmpC [5]): 3-4 |
| CC(C)CC(O)c1cn(Cc2cccc(B(O)O)c2)nn1 (stereo not drawn) [compound 9] | 5600 ± 300 |  |  | Ki (AmpC [3]): 11000 nM |
| O=C(CCC1CCCCC1)NCc1cn(Cc2cccc(B(O)O)c2)nn1 [compound 13] |  |  | 800 |  |
| COC(=O)c1cccc(CS(=O)(=O)NCc2cn(Cc3cccc(B(O)O)c3)nn2)c1 [compound 7] | 1700 | 5-6 | 300 | AC (amplification coefficient) (AmpC [5]): 4-5 |
| CN(C)c1ccc(-c2cn(Cc3cccc(B(O)O)c3)nn2)cc1 [compound 11] | 460 |  | 280 |  |
| C#CCNS(=O)(=O)Cc1cccc(C(=O)OC)c1 [Al-57] |  | exceeding three |  |  |
| C#CCOc1cccc(C(N)=O)c1 [Al-32] |  | exceeding three |  |  |
| C#CCNC(=O)c1ccc(C(=O)OC)cc1 [Al-88] |  |  |  | AC (amplification coefficient) (AmpC [5]): 3-4 |
| OXA-24 (Acinetobacter baumannii) |  |  |  | Km ([4]; other: OXA-24, NaPi 50 mM pH 7.0): 29 ± 1 µM µM |
